Reference: patent US7671181B2, “Polynucleotides encoding coccidian parasite casein kinase I, a chemotherapeutic target for antiprotozoal agents” (Merck Sharp & Dohme Corp., priority 2004, dated 2010)
Like-named read-outs stand apart in the source and are kept apart here.

Legend:
[1] = system: T. gondii tachyzoites; assay: [3H]-uracil uptake assay of parasite growth inhibition in infected HFF cell monolayers; type: cell-based, Toxoplasma gondii; conditions: for IC50: read-out: IC50 against T. gondii in the uracil uptake assay; for activity against cultured T. gondii parasites: uracil uptake / whole cell assay
Description: (§1) Host cells and parasite cultures—RH strain or RH ΔHXGPRT strain tachyzoites of T. gondii were maintained by serial passage in confluent monolayers of human foreskin fibroblasts (“HFF”) as described (Roos, D. S. et al., 1994, Methods Cell Biol. 45:27-63). A modified [^3H]-uracil uptake assay (Pfefferkorn, E. R. and Pfefferkorn, L. C., 1977, J. Protozool. 24:449-453) adapted for use in 96-well scintillation plates (Cytostar-T, Amersham; Piscataway, N.J.) was used to measure parasite growth inhibition. Each well, previously seeded with HFF cells, was inoculated with T. gondii tachyzoites (2×10^4) in 200 μl of growth media containing 2 μCi [5,6]-^3H-uracil (Perkin-Elmer NEN; Boston, Mass.) and serially diluted compound. Following incubation at 37° C. for 36-48 hours, tritium-incorporation into host cell monolayers was directly counted in a microplate scintillation counter (MicroBeta, PerkinElmer-Wallac).

[2] = system: T. gondii; assay: Parasite growth inhibition, modified [3H]-uracil uptake assay in infected HFF cell monolayers; type: cell-based, Toxoplasma gondii; conditions: for activity against T. gondii in the uracil uptake (whole cell) assay: cultured parasites, in words
Description: as §1
The only other CDK inhibitor with sub-μM activity against T. gondii was indirubin-3′-monoxime, which gave an IC50 value of 500 nM.

[3] = molecular target: T1, TgCKIα (Toxoplasma gondii, UniProt Q6QNM1); assay: Casein kinase assay, TgCKIα (recombinant FLAGTgCKIα or partially purified native); type: biochemical; set-up: other: recombinant or native forms of TgCKIα
Description: (§2) Protein kinase assays—Casein kinase activity was assayed essentially as described (Donald, R. G. K. et al., 2002, supra) using 96-well phosphocellulose plates (MAPH-NOB, Millipore; Billerica, Mass.) to capture ^33P-phosphorylated peptide or casein substrates. Kinase reactions were carried out in 40 μl volumes containing 25 mM Hepes, pH 7.4, 10 mM MgCl2, 20 mM β-glycerophosphate, 1 mM DTT, 250 μM substrate, 1 mg/mL BSA, 2 μM ATP, and 0.01 μM [γ-^33P]ATP (Perkin-Elmer, 3000 Ci/mmol). […] Casein (5% solution), partially dephosphorylated α-casein and β-casein were obtained from Sigma.
(§3) A variety of commercially available peptide substrates were evaluated. From Calbiochem (San Diego, Calif.): CKI substrate (RRKDLHDDEEDEAMSITA; SEQ ID NO:13); CKII substrate (RRADDSDDDDD; SEQ ID NO:14); Syntide-2 substrate (PLARTLSVAGLPGKK; SEQ ID NO:15); CaM kinase II substrate (281-291) (MHKNETVECLK; SEQ ID NO:16). From Promega: CKI substrate (DDDEESITRR; SEQ ID NO:17) and kemptide (LRRASLG; SEQ ID NO:18). From New England Biolabs (Beverly, Mass.): CKI phosphopeptide substrate (KRRRALS(p)VASLPGL; SEQ ID NO:19), and CKII substrate (RRREEETEEE; SEQ ID NO:20). PKG assays were performed with kemptide as substrate and 10 μM cGMP. CDPK was assayed with Syntide-2 substrate and in the presence of 100 μM CaCl2.
Purification of recombinant CKI enzymes—E. coli strain BL21 Origami™ (Novagen) was transformed with FLAGTgCKIα and FLAGTgCKIβ expression vectors, and colonies were expanded into 250 mL LB cultures grown at 37° C. […] Protein was measured with a micro-BCA reagent (Pierce) following a TCA-sodium deoxycholate step to remove residual FLAG peptide (Brown et al., 1989, Anal. Biochem. 180:136-139). […]
(§4) Preparations of FLAGTgCKIα and FLAGTgCKIβ were purified further on a SMART system FPLC 0.1 mL MonoQ anion exchange column (Pharmacia; New York, N.Y.) equilibrated in buffer A (50 mM Hepes, pH 7.4, 10% glycerol, 1 mM DTT) at room temperature. […] A linear salt gradient was applied (0-500 mM in 3 mL at 100 μl/min) and 100 μl fractions were collected and analyzed by SDS-PAGE and for CKI activity. […]

[4] = molecular target: EtCKIα (Eimeria tenella, UniProt Q6QNL9); assay: Casein kinase assay, partially purified native EtCKIα; type: biochemical; conditions: native enzyme
Description: (§5) Protein kinase assays—Casein kinase activity was assayed essentially as described (Donald, R. G. K. et al., 2002, supra) using 96-well phosphocellulose plates (MAPH-NOB, Millipore; Billerica, Mass.) to capture ^33P-phosphorylated peptide or casein substrates. Kinase reactions were carried out in 40 μl volumes containing 25 mM Hepes, pH 7.4, 10 mM MgCl2, 20 mM β-glycerophosphate, 1 mM DTT, 250 μM substrate, 1 mg/mL BSA, 2 μM ATP, and 0.01 μM [γ-^33P]ATP (Perkin-Elmer, 3000 Ci/mmol). The reactions were initiated by the addition of enzyme and incubated at room temperature for 60 min. Casein (5% solution), partially dephosphorylated α-casein and β-casein were obtained from Sigma.
as §3
Partial purification of native EtCKIα—The inability to stably express recombinant EtCKIα in T. gondii provided impetus to purify native enzyme from E. tenella parasites (slide 5). A lysate was prepared from 2×10^10 unsporulated oocysts using previously published procedures (Gurnett, A. M. et al., 2002, supra). The first two steps of the purification scheme used were essentially scaled-up from the method described for the purification of native TgCKIα. The lysate was subjected to preparative HiLoad Q anion-exchange chromatography and fractions eluted with a NaCl gradient (0-1 M NaCl). […]

[5] = molecular target: TgCKIβ (Toxoplasma gondii, UniProt Q6QNM0); assay: Casein kinase assay, recombinant FLAGTgCKIβ; type: biochemical; conditions: substrate titration, 2 μM ATP; for Km: read-out: Km(app), FLAGTgCKIβ
Description: as §2, §3
(§6) Purification of recombinant CKI enzymes—E. coli strain BL21 Origami™ (Novagen) was transformed with FLAGTgCKIα and FLAGTgCKIβ expression vectors, and colonies were expanded into 250 mL LB cultures grown at 37° C. Expression was induced with 1 mM IPTG once cultures had reached an OD600nm of 0.3-0.5, and the transformed bacteria were harvested 4-6 hours later. Cell pellets were resuspended in 15 mL of lysis buffer containing protease inhibitors and lysates prepared as described by the supplier (Bugbuster™ reagents, Novagen). The concentration of NaCl in the lysate was adjusted to 0.5 M, and 0.5 mL of FLAG-agarose beads were added (Sigma). The mixture was allowed to rock in a Nutator mixer (Becton-Dickinson; San Jose, Calif.) for 2 hours at 4° C. The slurry was then poured into an empty column and the matrix washed with 50 mL of wash buffer (50 mM Tris-HCl, pH 7.4, 0.5M NaCl, 10% glycerol, 1 mM DTT, 1 mM EDTA). Enzyme was eluted with 5 mL of 0.4 mg/mL FLAG peptide (Sigma) in NaCl-free wash buffer and concentrated with a centrifuge filtration unit (Amicon Ultra®, 10 kDa cut-off, Millipore). Protein was measured with a micro-BCA reagent (Pierce) following a TCA-sodium deoxycholate step to remove residual FLAG peptide (Brown et al., 1989, Anal. Biochem. 180:136-139). Using this procedure, and SDS-PAGE analysis, the yield of FLAGTgCKIβ was estimated as ˜200 μg of enzyme with >90% purity. Purification of FLAGTgCKIα was much less efficient with only about 1 μg of ˜10% pure enzyme obtained per 250 mL bacterial culture.
Preparations of FLAGTgCKIα and FLAGTgCKIβ were purified further on a SMART system FPLC 0.1 mL MonoQ anion exchange column (Pharmacia; New York, N.Y.) equilibrated in buffer A (50 mM Hepes, pH 7.4, 10% glycerol, 1 mM DTT) at room temperature. Samples of FLAG-affinity purified enzyme (10-100 μg) were syringe-passed through a 0.22 μm (pore-size) filter before loading on the column. A linear salt gradient was applied (0-500 mM in 3 mL at 100 μl/min) and 100 μl fractions were collected and analyzed by SDS-PAGE and for CKI activity. Fractions with peak activity were retained for further analysis. The degree of purity of the partially purified FLAGTgCKIα was estimated by densitometry of silver stained SDS-PAGE gels. A recombinant rat CKIδ enzyme used for control purposes was obtained from New England Biolabs.

[6] = molecular target: T2, TgCDPK1 (Toxoplasma gondii, UniProt Q9BJF5); assay: CDPK assay with Syntide-2, T. gondii CDPK1; type: biochemical; conditions: read-out: IC50 against the CDPK1 enzyme
T2 construct: The TgCDPK1 open reading frame was amplified by PCR from a Toxoplasma cDNA library; made in house
Description: as §5, §3
Purification of recombinant TgCDPK1 and TgPKG—The TgCDPK1 open reading frame was amplified by PCR from a Toxoplasma cDNA library, using primers based on the published sequence (Kieschnick et al., 2001, supra): sense primer, […] (SEQ ID NO:44); and, antisense primer, […] (SEQ ID NO:45). A C-terminal FLAG epitope tag was appended to the TgCDPK1 open reading frame by an additional round of PCR amplification (KOD polymerase) and the resulting DNA fragment was sub-cloned into a tubulin promoter expression vector (Donald and Liberator, 2002, supra). […]

[7] = molecular target: T1, TgCKIα; assay: Casein kinase assay, TgCKIα (recombinant FLAGTgCKIα or partially purified native); type: biochemical; set-up: Vmax(app), FLAGTgCKIα; other: substrate titration, 2 μM ATP; Km(app), FLAGTgCKIα; conditions: substrate titration, 2 μM ATP; for Km: read-out: Km(app), FLAGTgCKIα
Description: as §2, §3
as §6, with “Enzyme was eluted with 5 mL of 0.4 mg/mL FLAG peptide (Sigma) in NaCl-free wash buffer and concentrated with a centrifuge filtration unit (Amicon Ultra®, 10 kDa cut-off, Millipore).” left out, “Using this procedure, and SDS-PAGE analysis, the yield of FLAGTgCKIβ was estimated as ˜200 μg of enzyme with >90% purity. Purification of FLAGTgCKIα was much less efficient with only about 1 μg of ˜10% pure enzyme obtained per 250 mL bacterial culture.” left out
as §4

[8] = molecular target: T1, TgCKIα; assay: as above; type: biochemical; set-up: Km(app), native TgCKIα; other: substrate titration, 2 μM ATP; IC50, nativeTgCKIα; other: partially purified native enzyme from Toxoplasma tachyzoites; sensitivity of native TgCKIα phosphopeptide kinase activity (HiTrapQ fractions 5-9); other: 0.2 μM hymenialdisine or 1; conditions: substrate titration, 2 μM ATP; read-out: Km(app), native TgCKIα
Description: as §2, §3
as §6, with “Enzyme was eluted with 5 mL of 0.4 mg/mL FLAG peptide (Sigma) in NaCl-free wash buffer and concentrated with a centrifuge filtration unit (Amicon Ultra®, 10 kDa cut-off, Millipore).” left out, “Using this procedure, and SDS-PAGE analysis, the yield of FLAGTgCKIβ was estimated as ˜200 μg of enzyme with >90% purity. Purification of FLAGTgCKIα was much less efficient with only about 1 μg of ˜10% pure enzyme obtained per 250 mL bacterial culture.” left out
as §4

TgCKIβ, sequence (Q6QNM0 entry or part of it): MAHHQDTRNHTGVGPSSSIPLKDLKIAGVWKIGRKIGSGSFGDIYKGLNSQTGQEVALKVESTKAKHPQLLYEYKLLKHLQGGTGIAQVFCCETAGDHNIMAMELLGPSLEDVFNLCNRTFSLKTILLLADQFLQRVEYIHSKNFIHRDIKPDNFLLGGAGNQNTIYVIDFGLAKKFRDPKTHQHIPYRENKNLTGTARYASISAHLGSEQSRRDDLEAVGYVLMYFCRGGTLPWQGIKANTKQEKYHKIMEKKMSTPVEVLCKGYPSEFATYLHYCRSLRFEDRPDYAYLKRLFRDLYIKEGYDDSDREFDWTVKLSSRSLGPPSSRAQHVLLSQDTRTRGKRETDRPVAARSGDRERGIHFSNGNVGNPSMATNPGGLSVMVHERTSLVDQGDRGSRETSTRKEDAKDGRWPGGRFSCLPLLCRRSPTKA
T1 sequence (Q6QNM1 whole entry, looked up): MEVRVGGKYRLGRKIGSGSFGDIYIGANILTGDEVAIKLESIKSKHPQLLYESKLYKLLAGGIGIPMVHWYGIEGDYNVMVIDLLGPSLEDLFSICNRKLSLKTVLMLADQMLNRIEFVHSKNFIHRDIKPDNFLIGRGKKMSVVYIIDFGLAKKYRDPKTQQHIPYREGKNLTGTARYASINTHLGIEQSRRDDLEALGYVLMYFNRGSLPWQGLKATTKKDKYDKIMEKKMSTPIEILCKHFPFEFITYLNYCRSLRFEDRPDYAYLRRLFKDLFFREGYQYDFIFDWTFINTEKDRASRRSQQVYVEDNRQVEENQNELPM
EtCKIα, sequence (Q6QNL9 whole entry): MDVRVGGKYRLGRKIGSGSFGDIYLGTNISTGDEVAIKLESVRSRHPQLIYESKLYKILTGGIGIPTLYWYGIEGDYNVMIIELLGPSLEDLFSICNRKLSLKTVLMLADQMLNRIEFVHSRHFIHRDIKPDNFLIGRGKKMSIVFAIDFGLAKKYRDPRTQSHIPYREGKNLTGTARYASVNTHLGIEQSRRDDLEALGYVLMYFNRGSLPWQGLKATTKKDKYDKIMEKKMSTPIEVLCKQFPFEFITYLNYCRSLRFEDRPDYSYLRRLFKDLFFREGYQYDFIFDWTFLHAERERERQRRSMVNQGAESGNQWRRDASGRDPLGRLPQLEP
T2 sequence (Q9BJF5 entry or part of it): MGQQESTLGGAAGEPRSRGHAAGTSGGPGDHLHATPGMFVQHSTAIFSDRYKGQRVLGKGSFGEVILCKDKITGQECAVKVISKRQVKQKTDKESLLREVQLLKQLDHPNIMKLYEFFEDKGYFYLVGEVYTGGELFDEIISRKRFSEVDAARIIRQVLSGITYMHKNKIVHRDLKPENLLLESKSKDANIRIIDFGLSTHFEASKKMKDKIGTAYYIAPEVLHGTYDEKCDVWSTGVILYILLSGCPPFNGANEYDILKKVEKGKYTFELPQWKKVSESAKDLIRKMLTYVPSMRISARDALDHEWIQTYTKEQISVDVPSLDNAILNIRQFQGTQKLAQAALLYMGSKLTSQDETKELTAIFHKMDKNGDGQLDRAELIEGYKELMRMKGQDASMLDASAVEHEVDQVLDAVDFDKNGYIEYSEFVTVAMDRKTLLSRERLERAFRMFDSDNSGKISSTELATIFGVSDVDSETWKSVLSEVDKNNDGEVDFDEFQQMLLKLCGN

Work on CN1CCC(c2cc(-c3ccncc3)c(-c3ccc(F)cc3)[nH]2)CC1 [Compound 1] yielded an IC50 ([1]; infected HFF cell monolayers, 36-48 hours) of 200 nM and an IC50 ([2]; Toxoplasma gondii, HFF) of 200 nM.

For CC(C)[C@H](CO)Nc1nc(Nc2cc(N)cc(Cl)c2)c2ncn(C(C)C)c2n1 [aminopurvalanol], the IC50 ([1]; Toxoplasma gondii, HFF) was 375 nM, the IC50 [3] was 40 to 60 nM and the “activity against / sensitivity of EtCKIα” value [4] was “good activity”.

With Cn1cnc2c(NCc3ccccc3)nc(NCCO)nc21 [olomoucine] the “activity against cultured T. gondii parasites” value [1] was “no activity”.

For CC(C)[C@H](CO)Nc1nc(Nc2cccc(Cl)c2)c2ncn(C(C)C)c2n1 [purvalanol A], the “activity against cultured T. gondii parasites” value [1] was “mediocre activity” and the “activity against T. gondii in the uracil uptake (whole cell) assay” value [2] was “only mediocre activity”.

For CC[C@H](CO)Nc1nc(NCc2ccccc2)c2ncn(C(C)C)c2n1 [roscovitine], the “activity against cultured T. gondii parasites” value [1] was “mediocre activity” and the “activity against T. gondii in the uracil uptake (whole cell) assay” value [2] was “only mediocre activity”.

For RRKDLHDDEEDEAMSITA [CKI peptide], the “Vmax(app), FLAGTgCKIβ” value [5] was 8 nmol/min/mg and the Km [5] was 15 µM.

Work on indirubin-3′-monoxime yielded an IC50 [6] of 175 nM and an IC50 ([3]; recombinant or native forms of TgCKIα, read-out: IC50 against TgCKIα) of 172 nM.

B1: β-casein: β-casein from Sigma, kinase substrate (protein)
chain: RELEELNVPGEIVESLSSSEESITRINKKIEKFQSEEQQQTEDELQDKIHPFAQTQSLVYPFPGPIPNSLPQNIPPLTQTPVVVPPFLQPEVMGVSKVKEAMAPKHKEMPFPKYPVEPFTESQSLTLTDVENLHLPLPLLQSWMHQPHQPLPPTVMFPPQSVLSLSQSKVLPVPQKAVPYPQRDMPIQAFLLYQEPVLGPVRGPFPIIV
For B1, the “Vmax(app), FLAGTgCKIα” value [7] was 8 nmol/min/mg, the Km [7] was 30 µM and the “Vmax(app), FLAGTgCKIβ” value [5] was 16 nmol/min/mg. It also gave a Km [5] of 12 µM and a Km [8] of 13 µM.

B2: α-casein: partially dephosphorylated α-casein from Sigma, kinase substrate (protein)
chain: RPKHPIKHQGLPQEVLNENLLRFFVAPFPEVFGKEKVNELSKDIGSESTEDQAMEDIKQMEAESISSSEEIVPNSVEQKHIQKEDVPSERYLGYLEQLLRLKKYKVPQLEIVPNSAEERLHSMKEGIHAQQKEPMIGVNQELAYFYPELFRQFYQLDAYPSGAWYYVPLGTQYTDAPSFSDIPNPIGSENSEKTTMPLW
B2 was tested, and the “Vmax(app), FLAGTgCKIα” value [7] was 8 nmol/min/mg, the Km [7] was 4 µM and the “Vmax(app), FLAGTgCKIβ” value [5] was 12 nmol/min/mg. For the same molecule, the Km [5] was 5 µM and the Km [8] was 3 µM.
